Test results reported in PMC11571207, “Stereorandomized Oncocins with Preserved Ribosome Binding and Antibacterial Activity” (Journal of Medicinal Chemistry, 2024).
Like-named read-outs stand apart in the source and are kept apart here. No end group written: not given here.

Legend:
human red blood cells = test: Hemolysis assay, minimum hemolytic concentration
[1] = tested on: P. aeruginosa PA14 4.13 (phoQ); details: for MIC P. aeruginosa PA14 4.13: supplement CSV
[2] = tested on: P. aeruginosa PA14 4.18 (pmrB); details: for MIC P. aeruginosa PA14 4.18: supplement CSV
P. aeruginosa ZEM-1A = test: microbe, parasite or virus in culture; details: for MIC P. aeruginosa ZEM-1A: supplement CSV
Method in brief: (§1)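 Minimal inhibitory concentrations come from broth microdilution in MH medium, with a top peptide concentration of 64 μg/mL halved serially.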

P. aeruginosa ZEM9A = test: microbe, parasite or virus in culture; details: for MIC P. aeruginosa ZEM9A: supplement CSV
Method in brief: as §1

P. aeruginosa PA14 = test: microbe, parasite or virus in culture; details: for MIC P. aeruginosa PA14: supplement CSV
Method in brief: as §1

[3] = tested on: P. aeruginosa PA14 2P4 (pmrB); test: microbe, parasite or virus in culture; details: for MIC P. aeruginosa PA14 2P4: supplement CSV
Method in brief: as §1

K. pneumoniae OXA-48 = test: microbe, parasite or virus in culture; details: for MIC K. pneumoniae OXA-48: supplement CSV
Method in brief: as §1

E. cloacae = test: microbe, parasite or virus in culture; details: for MIC E. cloacae: supplement CSV
Method in brief: as §1

P. aeruginosa PAO1 = test: microbe, parasite or virus in culture; details: for MIC P. aeruginosa PAO1: supplement CSV
Method in brief: (§2)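 Read-out was visible growth after MTT addition, the MIC being the lowest inhibitory peptide concentration. Bacteria grown to log phase in LB were exposed in MH medium to peptide from 64 μg/mL in twofold dilutions for 15-18h at 37°C.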

E. coli W3110 = test: microbe, parasite or virus in culture; details: for MIC E. coli W3110: supplement CSV
Method in brief: as §2

S. aureus COL (MRSA) = test: microbe, parasite or virus in culture; details: for MIC S. aureus COL (MRSA): supplement CSV
Method in brief: as §2

A. baumannii ATCC19606 = test: microbe, parasite or virus in culture; details: for MIC A. baumannii ATCC19606: supplement CSV
Method in brief: as §2

K. pneumoniae NCTC 418 = test: microbe, parasite or virus in culture; details: for MIC K. pneumoniae NCTC418: supplement CSV
Method in brief: as §2

[4] = polymyxin B resistant strain, 12.5% MHB pH 7.4, 16–20 h at 37 °C
[5] = polymyxin B resistant strain, full MHB pH 7.4, 16–20 h at 37 °C

## VDKPPYLPRPRPPRRIYNR [sr14Nterm-Onc] (VDKPPYLPRPRPPRRIYNR-NH2; also: residues 1-14 stereorandomized (1:1 L/D mixture))
Human red blood cells; 2.5% human red blood cells (final) in 10 mM phosphate, 150 mM NaCl, pH 7.4, 25 °C, 4 h, visual inspection
  Haemolysis on hRBC, MHC: >1000 µg/mL
Human red blood cells; supplement CSV
  MHC human red blood cells: >1000 µg/mL
[1]; [4]
  MIC P. aeruginosa PA14 4.13 (phoQ), 12.5% MHB: 32 µg/mL
[1]; [5]
  MIC P. aeruginosa PA14 4.13 (phoQ), full MHB: > 64 µg/mL
[1]; 12.5% MH pH 7.4
  MIC P. aeruginosa PA14 4.13: 32 µg/mL
[1]; full MH pH 7.4
  MIC P. aeruginosa PA14 4.13: >64 µg/mL
[2]; [4]
  MIC P. aeruginosa PA14 4.18 (pmrB), 12.5% MHB: 32 µg/mL
[2]; [5]
  MIC P. aeruginosa PA14 4.18 (pmrB), full MHB: > 64 µg/mL
[2]; 12.5% MH pH 7.4
  MIC P. aeruginosa PA14 4.18: 32 µg/mL
[2]; full MH pH 7.4
  MIC P. aeruginosa PA14 4.18: >64 µg/mL
P. aeruginosa ZEM-1A; clinical isolate, 12.5% MHB pH 7.4, 16–20 h at 37 °C, cells marked c: single measurement (in duplicates)
  MIC P. aeruginosa ZEM-1A, 12.5% MHB: >64/>64 ^c μg/mL
P. aeruginosa ZEM-1A; clinical isolate, full MHB pH 7.4, 16–20 h at 37 °C, cells marked c: single measurement (in duplicates)
  MIC P. aeruginosa ZEM-1A, full MHB: >64/>64 ^c μg/mL
P. aeruginosa ZEM-1A; 12.5% MH pH 7.4
  MIC P. aeruginosa ZEM-1A: >64 µg/mL
P. aeruginosa ZEM-1A; full MH pH 7.4
  MIC P. aeruginosa ZEM-1A: >64 µg/mL
P. aeruginosa ZEM9A; clinical isolate, 12.5% MHB pH 7.4, 16–20 h at 37 °C
  MIC P. aeruginosa ZEM9A, 12.5% MHB: >64/64 μg/mL
P. aeruginosa ZEM9A; clinical isolate, full MHB pH 7.4, 16–20 h at 37 °C
  MIC P. aeruginosa ZEM9A, full MHB: >64/64 μg/mL
P. aeruginosa ZEM9A; 12.5% MH pH 7.4
  MIC P. aeruginosa ZEM9A: 64 µg/mL
P. aeruginosa ZEM9A; full MH pH 7.4
  MIC P. aeruginosa ZEM9A: >64 µg/mL
P. aeruginosa PA14; 12.5% MHB pH 7.4, 16–20 h at 37 °C, two different duplicate MIC determinations
  MIC P. aeruginosa PA14, 12.5% MHB: >64/64 μg/mL
P. aeruginosa PA14; full MHB pH 7.4, 16–20 h at 37 °C, two different duplicate MIC determinations
  MIC P. aeruginosa PA14, full MHB: >64/64 μg/mL
P. aeruginosa PA14; 12.5% MH pH 7.4
  MIC P. aeruginosa PA14: 64 µg/mL
P. aeruginosa PA14; full MH pH 7.4
  MIC P. aeruginosa PA14: >64 µg/mL
[3]; [4]
  MIC P. aeruginosa PA14 2P4 (pmrB), 12.5% MHB: 16 µg/mL
[3]; [5]
  MIC P. aeruginosa PA14 2P4 (pmrB), full MHB: > 64 µg/mL
[3]; 12.5% MH pH 7.4
  MIC P. aeruginosa PA14 2P4: 16 µg/mL
[3]; full MH pH 7.4
  MIC P. aeruginosa PA14 2P4: >64 µg/mL
K. pneumoniae OXA-48; carbapenem-resistant, 12.5% MHB pH 7.4, 16–20 h at 37 °C
  MIC K. pneumoniae OXA-48, 12.5% MHB: >64/>64 μg/mL
K. pneumoniae OXA-48; carbapenem-resistant, full MHB pH 7.4, 16–20 h at 37 °C
  MIC K. pneumoniae OXA-48, full MHB: >64/>64 μg/mL
K. pneumoniae OXA-48; 12.5% MH pH 7.4
  MIC K. pneumoniae OXA-48: >64 µg/mL
K. pneumoniae OXA-48; full MH pH 7.4
  MIC K. pneumoniae OXA-48: >64 µg/mL
E. cloacae; 12.5% MHB pH 7.4, 16–20 h at 37 °C
  MIC E. cloacae, 12.5% MHB: 8 µg/mL
E. cloacae; full MHB pH 7.4, 16–20 h at 37 °C
  MIC E. cloacae, full MHB: > 64 µg/mL
E. cloacae; 12.5% MH pH 7.4
  MIC E. cloacae: 8 µg/mL
E. cloacae; full MH pH 7.4
  MIC E. cloacae: >64 µg/mL
P. aeruginosa PAO1; P. aeruginosa PAO1, 12.5% Müller–Hinton medium, 16–20 h at 37 °C
  MIC P. aeruginosa, 12.5% MHB: > 16 µg/mL
P. aeruginosa PAO1; P. aeruginosa PAO1, full Müller–Hinton medium, 16–20 h at 37 °C
  MIC P. aeruginosa, Full MHB: > 64 µg/mL
P. aeruginosa PAO1; 12.5% MH pH 7.4
  MIC P. aeruginosa PAO1: >16 µg/mL
P. aeruginosa PAO1; full MH pH 7.4
  MIC P. aeruginosa PAO1: >64 µg/mL
E. coli W3110; E. coli W3110, 12.5% Müller–Hinton medium, 16–20 h at 37 °C, broth microdilution
  MIC E. coli, 12.5% MHB: 4 µg/mL
E. coli W3110; E. coli W3110, full Müller–Hinton medium, 16–20 h at 37 °C, broth microdilution
  MIC E. coli, Full MHB: 64 µg/mL
E. coli W3110; 12.5% MH pH 7.4
  MIC E. coli W3110: 4 µg/mL
E. coli W3110; full MH pH 7.4
  MIC E. coli W3110: 64 µg/mL
S. aureus COL (MRSA); S. aureus COL (MRSA), 12.5% Müller–Hinton medium, 16–20 h at 37 °C
  MIC S. aureus, 12.5% MHB: >64 / >64 μg/mL
S. aureus COL (MRSA); S. aureus COL (MRSA), full Müller–Hinton medium, 16–20 h at 37 °C
  MIC S. aureus, Full MHB: >64 / >64 μg/mL
S. aureus COL (MRSA); 12.5% MH pH 7.4
  MIC S. aureus COL (MRSA): >64 µg/mL
S. aureus COL (MRSA); full MH pH 7.4
  MIC S. aureus COL (MRSA): >64 µg/mL
A. baumannii ATCC19606; A. baumannii ATCC19606, 12.5% Müller–Hinton medium, 16–20 h at 37 °C
  MIC A. baumannii, 12.5% MHB: 16 µg/mL
A. baumannii ATCC19606; A. baumannii ATCC19606, full Müller–Hinton medium, 16–20 h at 37 °C
  MIC A. baumannii, Full MHB: 64 µg/mL
A. baumannii ATCC19606; 12.5% MH pH 7.4
  MIC A. baumannii ATCC19606: 16 µg/mL
A. baumannii ATCC19606; full MH pH 7.4
  MIC A. baumannii ATCC19606: 64 µg/mL
K. pneumoniae NCTC 418; K. pneumoniae NCTC 418, 12.5% Müller–Hinton medium, 16–20 h at 37 °C
  MIC K. pneumoniae, 12.5% MHB: > 16 µg/mL
K. pneumoniae NCTC 418; K. pneumoniae NCTC 418, full Müller–Hinton medium, 16–20 h at 37 °C
  MIC K. pneumoniae, Full MHB: > 64 µg/mL
K. pneumoniae NCTC 418; 12.5% MH pH 7.4
  MIC K. pneumoniae NCTC418: >16 µg/mL
K. pneumoniae NCTC 418; full MH pH 7.4
  MIC K. pneumoniae NCTC418: >64 µg/mL
